Results from patent US7998718B2, “Identification and functional characterization of a novel ribosomal S6 protein kinase” (Ludwig Institute for Cancer Research Ltd., priority 1998, dated 2011).

Assays:
p70β^S6k (p70β-II) = test: S6 kinase assay (40S subunits) on immunoprecipitates of transfected HEK293 cells treated with rapamycin or wortmannin; format: cell-based, human; settings: 30 min, HEK293 cells in DMEM with 10% FCS
Protocol: (§1) FIG. 6A-6B. Effects of rapamycin and wortmannin on p70β^S6k and p70α^S6k. Effects of rapamycin and wortmannin on S6 phosphorylation activity of p70α-I or p70β-II. HEK293 cells were transfected with mock cDNA or plasmids containing FLAG-tagged p70β1 or p70β2 isoforms. After 48 h of transfection, cells were treated with vehicle or indicated concentrations of rapamycin or wortmannin for 30 min. After immunoprecipitation with anti-FLAG antibodies, the kinase activity was determined by a p70 S6 kinase assay using 40S subunits as substrates. The proteins of the reaction mixture were separated by SDS-PAGE, transferred onto PVDF membrane and analyzed by autoradiography (FIGS. 6A and 6B, upper panels). Subsequent immunoblotting with anti-FLAG antibody confirmed the expression of p70α-I (FIG. 6A, lower panel) and p70β-II (FIG. 6B, lower panel). A representative of three experiments is shown. ^32P incorporation into S6 was quantified by PhosphorImager and is expressed in arbitrary units (PI units).
Materials and Methods. Treatment of transfected cells with rapamycin or wortmannin was performed as follows: 48 h after transfection, the cells were treated with various concentrations of rapamycin or wortmannin for 30 min.
Results. […] Thus, the effects of both inhibitors on p70β^S6k activity were examined. […]

p70α^S6k (p70α-I) [1] = test: as above; format: cell-based, rat; settings: 30 min, HEK293 cells in DMEM with 10% FCS
Protocol: as §1
Materials and Methods. Restriction enzymes and DNA modification enzymes were obtained from standard commercial sources and used according to manufacturer's recommendations. Oligonucleotides which were used for sequencing of p70β^S6k and various PCR fragments were synthesized by Genosys or Japan Bioservice, Inc. The pcDNA1 and pcDNA3 mammalian expression vectors were from Invitrogen. […]

[2] = tested on: p70β^S6k (p70β-II isoform); test: Stimulation of S6 kinase activity in transfected CHO-IR cells; format: cell-based, human; settings: serum-starved CHO-IR cells
Protocol: (§2) FIG. 5A. CHO-IR cells were transfected with mock (lane 1) or plasmids containing cDNAs of FLAG-tagged p70α-I (lanes 2 and 3) or FLAG-tagged p70β-II (lanes 4 to 7). After serum starvation for 16 hrs, cells were treated with the vehicle (lanes 2 and 4), 10^−7 M insulin for 10 min (lanes 3 and 5), 15% serum for 10 min (lane 6) or 500 nM TPA for 30 min (lane 7). After cell lysis and subsequent immunoprecipitation with anti-FLAG antibodies, immunoprecipitates were subjected to a p70 S6 kinase assay using 40S subunits as substrates. The reaction mixture was separated by SDS-PAGE, transferred onto PVDF membrane. The membrane was analyzed by autoradiography (upper panel) and then immunoblotted with anti-FLAG antibodies (lower panel). A representative of three experiments is shown. ^32P incorporation into S6 was quantified by Molecular Dynamics. PhosphorImager™ and is expressed in arbitrary units (PI units).
(§3) Materials and Methods. HEK293 cells or CHO-IR cells were transfected with plasmids containing p70α^S6k and p70β^S6k sequences using lipofectAMINE under conditions recommended by the manufacturer (Gibco-BRL). Two days later, transfected cells were frozen in liquid nitrogen and stored until lysis. […]
(§4) Results. […] The activation of p70β^S6k (p70β-II isoform) by insulin was analyzed in CHO-IR cells, which stably over expresses the insulin receptor. […]

p70α^S6k (p70α-I) [3] = test: as above; format: cell-based, rat; settings: 10^-7 M insulin for 10 min, serum-starved CHO-IR cells
Protocol: as §2, §3, §4

40S ribosomal subunit = test: In vitro S6 kinase assay of activated kinase variants expressed in HEK293 cells; format: biochemical; settings: versus wild type p70α^S6k
Protocol: Materials and Method. Activated variants of p70β^S6k and p70α^S6k were made by site-directed mutagenesis. Oligonucleotide primers, specific to the site to be mutated and complimentary to opposite strands of p70β^S6k and p70α^S6k sequences were generated as recommended by manufacturer (Stratagene). Site directed mutagenesis was carried out using pcDNA3/Glu-tag-p70β^S6k and pcDNA3/Glu-tag-p70α^S6k expression vector/plasmids as templates, according to the recommended protocol (Stratagene). All mutations were verified by DNA sequencing. Expression of mutated forms of both kinases was analyzed by immunobloting with anti-Glu-tag antibodies. The activity of normal and mutated forms of both kinases was measured by in vitro S6 kinase assay. 40S ribosomal subunit was used as a substrate in this reaction.
We have generated an activated form of p70β^S6k by substituting putative phosphorylation site Thr 401 with Aspartic acid (Asp) (“p70β^S6k (T401D)”) as shown in FIG. 10.

[4] = tested on: p70β^S6k (p70β-II isoform); test: Stimulation of S6 kinase activity by PDGF in transfected PAE-PDGF-R cells; format: cell-based, human; settings: 20 ng/ml PDGF BB for 20 min, serum-starved PAE-PDGF-R cells
Protocol: (§5) FIG. 5B. Stimulation of the p70α^S6k and p70β^S6k activity towards ribosomal S6 protein by PDGF in PAE-PDGF-R cells. PAE-PDGF-R cells were transfected with EE-tagged p70α^S6k and p70β^S6k plasmids using lipofectAMINE. After 24 hr, transfected cells were serum-starved for 16 hr and stimulated with 20 ng/ml PDGF BB (Calbiochem) for 20 min. Control cells were treated with the vehicle under the same conditions. After immunoprecipitation with anti-EE antibodies, an in vitro kinase reaction was carried out in the presence of 40S subunits, containing the S6 protein. Reaction mixtures were separated by SDS-PAGE and incorporation of ^32P into S6 protein was measured by PhosphoImager.
(§6) Materials and Methods. HEK293 cells or CHO-IR cells were transfected with plasmids containing p70α^S6k and p70β^S6k sequences using lipofectAMINE under conditions recommended by the manufacturer (Gibco-BRL). Two days later, transfected cells were frozen in liquid nitrogen and stored until lysis. After cell extraction, the lysates were subjected to immunoprecipitation and/or immunoblot analysis. If cells were to be stimulated, they were starved in medium without FCS for 16 h and then stimulated with 10^−7 M insulin for 10 min, 15% FCS for 10 min, 500 nM TPA for 30 min or vehicle alone. PAE-PDGF-R cells were transfected with appropriate plasmids using lipofect under conditions recommended by the manufacturer. […]

p70α^S6k = test: as above; format: cell-based, rat; settings: 20 ng/ml PDGF BB for 20 min, serum-starved PAE-PDGF-R cells
Protocol: as §5, §6

CO[C@H]1C[C@@H]2CC[C@@H](C)[C@@](O)(O2)C(=O)C(=O)N2CCCC[C@H]2C(=O)O[C@H]([C@H](C)C[C@@H]2CC[C@@H](O)[C@H](OC)C2)CC(=O)[C@H](C)/C=C(\C)[C@@H](O)[C@@H](OC)C(=O)[C@H](C)C[C@H](C)/C=C/C=C/C=C/1C [rapamycin]
inhibition of p70β^S6k (p70β^S6k (p70β-II); 20 nM rapamycin): 46%
inhibition of the p70α^S6k (p70α^S6k (p70α-I) [1]; 20 nM rapamycin): 92%

CCCCCCCCCCCCCC(=O)O[C@@H]1[C@@H](C)[C@@]2(O)[C@@H](C=C(CO)C[C@]3(O)C(=O)C(C)=C[C@@H]23)[C@@H]2C(C)(C)[C@]12OC(C)=O [TPA]
stimulation of p70β^S6k phosphorylation of ribosomal protein S6 ([2]; 500 nM TPA for 30 min): stimulated

COC[C@H]1OC(=O)c2coc3c2[C@@]1(C)C1=C(C3=O)[C@@H]2CCC(=O)[C@@]2(C)C[C@H]1OC(C)=O [wortmannin]
inhibition of p70β^S6k activity (p70β^S6k (p70β-II); 100 nM wortmannin): 62%
inhibition of p70α^S6k activity (p70α^S6k (p70α-I) [1]; 100 nM wortmannin): 86%

insulin: hormone used to stimulate CHO-IR cells
induction of p70β^S6k activity towards ribosomal S6 protein ([2]; 10^-7 M insulin for 10 min): 2.8 fold
activation of p70α^S6k activity (p70α^S6k (p70α-I) [3]): 3.5 fold

p70α^S6k (T412D): activated version of p70α^S6k made by site-directed mutagenesis
S6 kinase activation compared with wild type kinase (40S ribosomal subunit): 18 fold

B1: PDGF: PDGF BB growth factor purchased from Calbiochem (protein, UniProt P01127 82-190, looked up)
Platelet-derived growth …: SLGSLTIAEPAMIAECKTRTEVFEISRRLIDRTNANFLVWPPCVEVQRCSGCCNNRNVQCRPTQVQLRPVQVRKIEIVRKKPIFKKATVTLEDHLACKCETVAAARPVT
modifications: Platelet-derived growth factor subunit B
notes: PDGF BB growth factor purchased from Calbiochem
activation of p70β^S6k [4]: 30 fold
activation of p70α^S6k (p70α^S6k): 3.4 fold
